Measurements published in PubChem BioAssay AID248 (DTP/NCI, 2004).
“And” between values parts separate entries of the source, which are not always exact repeats. Equal values may be shown once. Toxic doses and inconclusive results are not listed. Rule as the data show it: active = T/C of 150% or more; inactive = T/C below 125%.

System: L1210 leukemia ip in BDF1 mice, survival T/C
Test: NCI In Vivo Anticancer Drug Screen. Data for tumor model L1210 Leukemia (intraperitoneal) in B6D2F1 (BDF1) mice
Conditions: endpoint: mean survival time, higher = longer survival
How it was run: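 Tumor was transplanted into mice, which were then dosed with test compound or vehicle alone. Survival was recorded for each group, and the treated figure was expressed relative to the control figure.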

[1] = dose: 100.0 mg/kg/injection, schedule: Q04DX002 (ip), vehicle: Klucel (hydroxypropylcellulose) (HPC)
[2] = dose: 200.0 mg/kg/injection, schedule: Q04DX002 (ip), vehicle: Klucel (hydroxypropylcellulose) (HPC)
[3] = dose: 400.0 mg/kg/injection, schedule: Q04DX002 (ip), vehicle: Klucel (hydroxypropylcellulose) (HPC)
[4] = dose: 100.0 mg/kg/injection, schedule: Q01DX009 (ip), vehicle: Klucel (hydroxypropylcellulose) (HPC)
[5] = dose: 100.0 mg/kg/injection, schedule: Q04DX003 (ip), vehicle: Klucel (hydroxypropylcellulose) (HPC)
[6] = dose: 200.0 mg/kg/injection, schedule: Q04DX003 (ip), vehicle: Klucel (hydroxypropylcellulose) (HPC)
[7] = dose: 400.0 mg/kg/injection, schedule: Q04DX003 (ip), vehicle: Klucel (hydroxypropylcellulose) (HPC)
[8] = dose: 100.0 mg/kg/injection, schedule: Q01DX009 (ip), vehicle: saline with Tween-80
[9] = dose: 200.0 mg/kg/injection, schedule: Q01DX009 (ip), vehicle: saline with Tween-80
[10] = dose: 400.0 mg/kg/injection, schedule: Q01DX009 (ip), vehicle: saline with Tween-80
[11] = dose: 50.0 mg/kg/injection, schedule: Q01DX009 (ip), vehicle: Klucel (hydroxypropylcellulose) (HPC)
[12] = dose: 100.0 mg/kg/injection, schedule: Q01DX001 (ip), vehicle: saline
[13] = dose: 200.0 mg/kg/injection, schedule: Q01DX001 (ip), vehicle: saline
[14] = dose: 100.0 mg/kg/injection, schedule: Q04DX003 (ip), vehicle: saline

Measured: T/C

O=C(CC1C(=O)Nc2ccccc21)c1ccccc1 (configuration not stated)
inactive: [1] 91 % of control | [2] 105 % of control | [3] 91 % of control

CCCCOC(=N)N(CCCC)CC(C)(C)[N+](=O)[O-]
inactive: dose: 44.0 mg/kg/injection, schedule: Q01DX Z (ip), vehicle: methylcellulose (MC) 98 % of control | dose: 100.0 mg/kg/injection, schedule: Q01DX Z (ip), vehicle: methylcellulose (MC) 98 % of control

CC(C)CC(=O)CC(O)C(Cl)(Cl)Cl (configuration not stated)
inactive: dose: 50.0 mg/kg/injection, schedule: Q04DX002 (ip), vehicle: Klucel (hydroxypropylcellulose) (HPC) 104 % of control | [1] 93 % of control | [2] 93 % of control | [3] 101 % of control

CCC1CN2C(=N1)c1ccccc1-c1cc([N+](=O)[O-])ccc12 (configuration not stated)
inactive: [4] 101 % of control | [5] 99 % of control | dose: 200.0 mg/kg/injection, schedule: Q01DX009 (ip), vehicle: Klucel (hydroxypropylcellulose) (HPC) 104 % of control | [6] 106 % of control | dose: 400.0 mg/kg/injection, schedule: Q01DX009 (ip), vehicle: Klucel (hydroxypropylcellulose) (HPC) 95 % of control | [7] 97 % of control

O=C1OCCN1c1ccc(S(=O)(=O)c2ccc(N3CCOC3=O)cc2)cc1
inactive: [8] 98 % of control | dose: 100.0 mg/kg/injection, schedule: Q04DX003 (ip), vehicle: saline with Tween-80 102 % of control | [9] 93 % of control | dose: 200.0 mg/kg/injection, schedule: Q04DX003 (ip), vehicle: saline with Tween-80 102 % of control | [10] 95 % of control | dose: 400.0 mg/kg/injection, schedule: Q04DX003 (ip), vehicle: saline with Tween-80 96 % of control

CCCn1c(O)c(C(=O)CC)sc1=S
inactive: dose: 50.0 mg/kg/injection, schedule: Q01DX009 (ip), vehicle: saline with Tween-80 95 % of control | [8] 88 % of control

O=C1OCC/C1=C\CCCCCCCCC1CO1 (configuration not stated)
inactive: dose: 25.0 mg/kg/injection, schedule: Q04DX002 (ip), vehicle: saline 94 % of control | dose: 50.0 mg/kg/injection, schedule: Q04DX002 (ip), vehicle: saline 102 % of control | dose: 100.0 mg/kg/injection, schedule: Q04DX002 (ip), vehicle: saline 94 % of control and 101 % of control

CCCCCCCCCCCCCCCCS(=O)CCCCCCCCCCCCCCCC
inactive: [11] 88 % of control | [4] 92 % of control

COc1ccc(C(=O)C2=CC(=O)C(=O)C2)cc1OC
inactive: [12] 98 % of control | [13] 98 % of control | dose: 400.0 mg/kg/injection, schedule: Q01DX001 (ip), vehicle: saline 94 % of control

CCCCOC(=O)C#CC(=O)OCCCC
inactive: dose: 6.25 mg/kg/injection, schedule: Q01DX009 (ip), vehicle: carboxymethylcellulose (CMC) 94 % of control | dose: 6.25 mg/kg/injection, schedule: Q04DX003 (ip), vehicle: carboxymethylcellulose (CMC) 100 % of control | dose: 12.5 mg/kg/injection, schedule: Q01DX009 (ip), vehicle: carboxymethylcellulose (CMC) 96 % of control | dose: 12.5 mg/kg/injection, schedule: Q04DX002 (ip), vehicle: carboxymethylcellulose (CMC) 95 % of control and 97 % of control | dose: 12.5 mg/kg/injection, schedule: Q04DX003 (ip), vehicle: carboxymethylcellulose (CMC) 97 % of control | dose: 25.0 mg/kg/injection, schedule: Q04DX002 (ip), vehicle: carboxymethylcellulose (CMC) 92 % of control and 95 % of control | dose: 25.0 mg/kg/injection, schedule: Q04DX003 (ip), vehicle: carboxymethylcellulose (CMC) 95 % of control | dose: 50.0 mg/kg/injection, schedule: Q04DX002 (ip), vehicle: carboxymethylcellulose (CMC) 90 % of control

c1ccc(C2(c3ccccc3)CC([P+](c3ccccc3)(c3ccccc3)c3ccccc3)=NN2)cc1
inactive: [12] 108 % of control | [13] 115 % of control

O=S(=O)(Nc1cc(Cl)c(NS(=O)(=O)c2ccccc2)c(S(=O)(=O)c2ccccc2)c1Cl)c1ccccc1
inactive: dose: 100.0 mg/kg/injection, schedule: Q01DX001 (ip), vehicle: Klucel (hydroxypropylcellulose) (HPC) 97 % of control | [5] 101 % of control | dose: 200.0 mg/kg/injection, schedule: Q01DX001 (ip), vehicle: Klucel (hydroxypropylcellulose) (HPC) 93 % of control | [6] 102 % of control | dose: 400.0 mg/kg/injection, schedule: Q01DX001 (ip), vehicle: Klucel (hydroxypropylcellulose) (HPC) 97 % of control | [7] 106 % of control

COc1cc(/C=N/NC(=O)CNC(=O)c2ccccc2)ccc1O
inactive: [8] 102 % of control | [9] 102 % of control | [10] 101 % of control

O=[N+]([O-])c1cc(S(=O)(=O)c2ccccc2)ccc1S(=O)(=O)c1ccccc1
inactive: dose: 50.0 mg/kg/injection, schedule: Q01DX005 (ip), vehicle: saline with Tween-80 99 % of control | dose: 100.0 mg/kg/injection, schedule: Q01DX005 (ip), vehicle: saline with Tween-80 94 % of control | dose: 400.0 mg/kg/injection, schedule: Q01DX005 (ip), vehicle: saline with Tween-80 89 % of control

N#Cc1nc2ccc(Cl)cc2nc1C#N
inactive: dose: 25.0 mg/kg/injection, schedule: Q01DX009 (ip), vehicle: Klucel (hydroxypropylcellulose) (HPC) 104 % of control | [11] 105 % of control | [4] 95 % of control and 102 % of control

NC(N)=NCCN=C(N)N
inactive: dose: 15.0 mg/kg/injection, schedule: Q01DX Z (oral), vehicle: saline 97 % of control | dose: 30.0 mg/kg/injection, schedule: Q01DX Z (oral), vehicle: saline 103 % of control | dose: 60.0 mg/kg/injection, schedule: Q01DX Z (oral), vehicle: saline 101 % of control | dose: 120.0 mg/kg/injection, schedule: Q01DX Z (oral), vehicle: saline 95 % of control

N#CC(C(N)=O)n1cnc(C(N)=O)c1N (configuration not stated)
inactive: dose: 100.0 mg/kg/injection, schedule: Q01DX001 (ip), vehicle: carboxymethylcellulose (CMC) 97 % of control | dose: 200.0 mg/kg/injection, schedule: Q01DX001 (ip), vehicle: carboxymethylcellulose (CMC) 94 % of control | dose: 400.0 mg/kg/injection, schedule: Q01DX001 (ip), vehicle: carboxymethylcellulose (CMC) 96 % of control

CCCN1CCN(c2ccccc2)CC1
inactive: dose: 25.0 mg/kg/injection, schedule: Q04DX003 (ip), vehicle: saline 90 % of control | dose: 50.0 mg/kg/injection, schedule: Q04DX003 (ip), vehicle: saline 97 % of control | [14] 92 % of control

CNc1ccc(C(=O)O)c(Cl)c1
inactive: dose: 75.0 mg/kg/injection, schedule: Q01DX001 (ip), vehicle: saline 95 % of control | dose: 75.0 mg/kg/injection, schedule: Q04DX003 (ip), vehicle: saline 97 % of control | dose: 150.0 mg/kg/injection, schedule: Q01DX001 (ip), vehicle: saline 98 % of control | dose: 150.0 mg/kg/injection, schedule: Q04DX003 (ip), vehicle: saline 111 % of control | dose: 300.0 mg/kg/injection, schedule: Q01DX001 (ip), vehicle: saline 93 % of control | dose: 300.0 mg/kg/injection, schedule: Q04DX003 (ip), vehicle: saline 103 % of control

c1ccc2c(c1)CNC2
inactive: [14] 104 % of control | dose: 200.0 mg/kg/injection, schedule: Q01DX009 (ip), vehicle: saline 94 % of control | dose: 200.0 mg/kg/injection, schedule: Q04DX003 (ip), vehicle: saline 106 % of control | dose: 400.0 mg/kg/injection, schedule: Q01DX009 (ip), vehicle: saline 92 % of control | dose: 400.0 mg/kg/injection, schedule: Q04DX003 (ip), vehicle: saline 97 % of control
